{"source": "patent US11110098B2", "about": "“Methods and medicaments for the treatment of renal cell carcinoma” (University of Kansas, priority 2017, dated 2021)", "assay_type": "in vivo", "settings": "OPC31260 30 and 60 mg/Kg, daily intraperitoneal, 28 days", "protocol": "Female Athymic Nude-Foxn1^nu mice (Nu/Nu mice), 7-8 weeks old and weighing ˜25 g were procured from Envigo/Harlan. All animal studies were carried out according to the protocols approved by the University of Kansas Medical Center Institutional Animal Care and Use Committee. Mice were subcutaneously injected on the right flank region with 1×10^6 Caki-1 cells in 100 μl of DMEM medium. One week after injection, palpable tumors appeared and tumor volume was measured with calipers following the formula, […]. Once the tumor volume reached ˜80-100 mm^3, mice were randomized into sub-groups based on the tumor volume. Animals were administered vehicle, OPC31260 (30 mg/Kg BWt.), OPC31260 (60 mg/Kg BWt) or dDAVP (1 μg/Kg BWt.) and vehicle (saline) by daily intraperitoneal injection, or tolvaptan (120 mg/Kg BWt. in 1% aqueous solution of hydroxypropyl methylcellulose-dose derived from previous study^31) or vehicle by daily oral gavage for 28 days. Body weights and tumor volumes were measured every alternate day. At the end of the study, mice were injected with BRDU (100 mg/Kg BWt. by IP) 90 minutes before sacrifice. Tumors were harvested, photographed and weighed. Tumors were flash frozen or paraffin embedded for further analysis.", "data": [{"compound": "Cc1ccccc1C(=O)Nc1ccc(C(=O)N2CCCC(N(C)C)c3ccccc32)cc1", "note": "(centres unmarked) [OPC31260, 5-(dimethylamino)-1-[4-(2-methylbenzamido)benzoyl]-2,3,4,5-tetrahydro-1H-benzazepine]", "values": [{"measurement": "body weight of the mice", "value": "did not significantly change"}, {"measurement": "urine osmolality", "value": "reduced urine osmolality in a dose dependent manner"}]}]}
